Where two headings read alike, the source gives them in different places.
Tests used:
RVFV MP12 ∆NSs-Luc = test: microbe, parasite or virus in culture; format: cell-based, Rift Valley fever virus; conditions: for inhibition at 100 µM: read-out: inhibition of RVFV MP12-luc
[1] = tested on: S6 ribosomal protein (Ser235/236) phosphorylation and RVFV NP; format: cell-based, mouse
in vitro = conditions: mouse
RVFV = conditions: mouse, in vivo; cited from earlier work
RVFV MP12 = format: cell-based, Rift Valley fever virus

SMILES: CCc1cncnc1N1CCN(Cc2nc3ccc(C(F)(F)F)cc3[nH]2)CC1 [PF-4708671]
- CC50 (H2.35 cells): > 50 µM
- EC50 (RVFV MP12 ∆NSs-Luc; read-out: EC50): 17 µM
- levels of RVFV NP [1]: decreased
- phosphorylation of S6 ribosomal protein (Ser 235/236) [1]: decreased phosphorylation

SMILES: CO[C@H]1C[C@@H]2CC[C@@H](C)[C@@](O)(O2)C(=O)C(=O)N2CCCC[C@H]2C(=O)O[C@H]([C@H](C)C[C@@H]2CC[C@@H](O)[C@H](OC)C2)CC(=O)[C@H](C)/C=C(\C)[C@@H](O)[C@@H](OC)C(=O)[C@H](C)C[C@H](C)/C=C/C=C/C=C/1C [Rapamycin]
- EC50 (RVFV MP12 ∆NSs-Luc; Rift Valley fever virus, 18 h): 18 µM
- levels of RVFV NP [1]: markedly decreased
- phosphorylation of S6 ribosomal protein (Ser 235/236) [1]: markedly decreased
- CC50 (in vitro): > 100 µM
- protection from RVFV induced pathogenesis (RVFV): protects mice

SMILES: CC(C)CCN1c2nc(Nc3cc(F)c(O)c(F)c3)ncc2N(C)C(=O)C1C (centres unmarked) [BI-D1870]
- effect of increasing drug concentration on viral replication (luciferase) (RVFV MP12 ∆NSs-Luc): viral replication increased
- levels of RVFV NP [1]: modestly increased
- phosphorylation of S6 ribosomal protein (Ser 235/236) [1]: no apparent change
- increase of infectious viral titer (RVFV MP12): approximately 0.5 log

SMILES: O=C(NOC[C@H](O)CO)c1ccc(F)c(F)c1Nc1ccc(I)cc1F [PD0325901]
- decrease in viability (H2.35 cells; mouse): ~ 20%
- EC50 (RVFV MP12 ∆NSs-Luc; Rift Valley fever virus, 18 h): > 50 µM
- inhibition at 100 µM (RVFV MP12 ∆NSs-Luc; Rift Valley fever virus): 52%
- levels of RVFV NP [1]: minimal inhibition
- phosphorylation of S6 ribosomal protein (Ser 235/236) [1]: minimal inhibition
- effect on RVFV titers (RVFV MP12): minimal inhibition
- CC50 (in vitro): > 100 µM

SMILES: C[S+]([O-])c1ccc(-c2nc(-c3ccncc3)c(-c3ccc(F)cc3)[nH]2)cc1 (centres unmarked) [SB203580]
- cell toxicity (H2.35 cells): no appreciable cell toxicity
- inhibition at 100 µM (RVFV MP12 ∆NSs-Luc; Rift Valley fever virus): 45%
- levels of RVFV NP [1]: minimal inhibition
- phosphorylation of S6 ribosomal protein (Ser 235/236) [1]: minimal inhibition
- effect on RVFV titers (RVFV MP12): minimal inhibition
- CC50 (in vitro): > 100 µM
